Where “and” joins values, the source holds several entries; their conditions need not be identical. Equal values may be shown once. Bridge positions count the residues as written; N and C are the ends. Square brackets hold non-standard residues; d marks the D form. Peptide text beside a SMILES is read from it. αMeY = C[C@](N)(Cc1ccc(O)cc1)C(=O)O; Nle = CCCC[C@H](N)C(=O)O

This experiment concerns the target T1, Growth hormone-releasing hormone receptor (Rattus norvegicus) (UniProt Q02644).
T1 sequence (whole entry): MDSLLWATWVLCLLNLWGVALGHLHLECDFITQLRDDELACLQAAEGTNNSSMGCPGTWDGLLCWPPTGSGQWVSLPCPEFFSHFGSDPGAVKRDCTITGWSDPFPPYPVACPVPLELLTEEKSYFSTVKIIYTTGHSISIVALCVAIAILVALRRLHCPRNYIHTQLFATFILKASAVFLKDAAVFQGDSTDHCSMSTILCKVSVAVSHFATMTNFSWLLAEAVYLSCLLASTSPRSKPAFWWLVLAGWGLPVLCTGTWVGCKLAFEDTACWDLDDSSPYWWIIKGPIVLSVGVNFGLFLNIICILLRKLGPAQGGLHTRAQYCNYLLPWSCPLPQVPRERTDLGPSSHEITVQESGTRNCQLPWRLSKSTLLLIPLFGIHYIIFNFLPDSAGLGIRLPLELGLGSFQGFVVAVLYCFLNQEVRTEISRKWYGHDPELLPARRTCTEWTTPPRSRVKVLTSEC
Nature of the experiment: Potency for growth hormone releasing hormone receptor (GHRFR) relative to human GHRH(1-40)OH- in the rat pituitary cell culture assay. The experiment is classed as functional, cell-based. The conditions noted are these: Pituitary gland cell.
As to `CC[C@H](C)[C@H](NC(=O)[C@H](C)NC(=O)[C@H](CC(=O)O)NC(=O)[C@H](C)NC(=O)[C@@H](N)Cc1ccc(O)cc1)C(=O)N[C@@H](Cc1ccccc1)C(=O)N[C@H](C(=O)N[C@@H](CC(N)=O)C(=O)N[C@@H](CO)C(=O)N[C@@H](Cc1ccc(O)cc1)C(=O)N[C@@H](CCCN=C(N)N)C(=O)N[C@@H](CCCCN)C(=O)N[C@H](C(=O)N[C@H]1CCC(=O)NCCCC[C@@H](C(=O)N[C@@H](CO)C(=O)N[C@@H](C)C(=O)N[C@@H](CCCN=C(N)N)C(=O)N[C@@H](CCCCN)C(=O)N[C@@H](CC(C)C)C(=O)N[C@@H](CC(C)C)C(=O)N[C@@H](CCC(N)=O)C(=O)N[C@@H](CC(=O)O)C(=O)N[C@H](C(=O)N[C@@H](CCSC)C(=O)N[C@@H](CO)C(=O)N[C@@H](CCCN=C(N)N)C(N)=O)[C@@H](C)CC)NC(=O)[C@H](CCC(N)=O)NC(=O)CNC1=O)C(C)C)[C@@H](C)O` (H-YADAIFTNSYRKVEGQKSARKLLQDIMSR-NH2; lactam 14-17), the Relative potency was found to be 0.026. Turning to `CC[C@H](C)[C@H](NC(=O)[C@H](C)NC(=O)[C@H](CC(=O)O)NC(=O)[C@H](C)NC(=O)[C@@](C)(N)Cc1ccc(O)cc1)C(=O)N[C@@H](Cc1ccccc1)C(=O)N[C@H](C(=O)N[C@@H](C)C(=O)N[C@@H](C)C(=O)N[C@@H](Cc1ccc(O)cc1)C(=O)N[C@@H](CCCN=C(N)N)C(=O)N[C@@H](CCCCN)C(=O)N[C@H](C(=O)N[C@@H](CC(C)C)C(=O)N[C@@H](C)C(=O)N[C@@H](CCC(N)=O)C(=O)N[C@@H](CC(C)C)C(=O)N[C@@H](CO)C(=O)N[C@@H](C)C(=O)N[C@@H](CCCN=C(N)N)C(=O)N[C@@H](CCCCN)C(=O)N[C@@H](C)C(=O)N[C@@H](CC(C)C)C(=O)N[C@@H](CCC(N)=O)C(=O)N[C@@H](CC(=O)O)C(=O)N[C@H](C(=O)N[C@@H](CCSC)C(=O)N[C@@H](C)C(=O)N[C@@H](CCCN=C(N)N)C(N)=O)[C@@H](C)CC)C(C)C)[C@@H](C)O` (H-[αMeY]ADAIFTAAYRKVLAQLSARKALQDIMAR-NH2), the Relative potency was found to be 11.2. To `CC[C@H](C)[C@H](NC(=O)[C@H](C)NC(=O)[C@H](CC(=O)O)NC(=O)[C@H](C)NC(=O)[C@@](C)(N)Cc1ccc(O)cc1)C(=O)N[C@@H](Cc1ccccc1)C(=O)N[C@H](C(=O)N[C@@H](CC(N)=O)C(=O)N[C@@H](CO)C(=O)N[C@@H](Cc1ccc(O)cc1)C(=O)N[C@@H](CCCN=C(N)N)C(=O)N[C@@H](CCCCN)C(=O)N[C@H](C(=O)N[C@@H](CC(C)C)C(=O)N[C@@H](C)C(=O)N[C@@H](CCC(N)=O)C(=O)N[C@@H](CC(C)C)C(=O)N[C@@H](CO)C(=O)N[C@@H](C)C(=O)N[C@@H](CCCN=C(N)N)C(=O)N[C@@H](CCCCN)C(=O)N[C@@H](C)C(=O)N[C@@H](CC(C)C)C(=O)N[C@@H](CCC(N)=O)C(=O)N[C@@H](CC(=O)O)C(=O)N[C@H](C(=O)N[C@@H](CCSC)C(=O)N[C@@H](CO)C(=O)N[C@@H](CCCN=C(N)N)C(N)=O)[C@@H](C)CC)C(C)C)[C@@H](C)O` (H-[αMeY]ADAIFTNSYRKVLAQLSARKALQDIMSR-NH2) belongs 25.6; to `CCCC[C@H](NC(=O)[C@@H](NC(=O)[C@H](CC(=O)O)NC(=O)[C@H](CCC(N)=O)NC(=O)[C@H](CC(C)C)NC(=O)[C@H](CC(C)C)NC(=O)[C@H](CCCCN)NC(=O)[C@H](CCCN=C(N)N)NC(=O)[C@H](C)NC(=O)[C@H](CO)NC(=O)[C@H](CC(C)C)NC(=O)[C@H](CCC(N)=O)NC(=O)[C@H](C)NC(=O)[C@H](CC(C)C)NC(=O)[C@@H](NC(=O)[C@H](CCCCN)NC(=O)[C@H](CCCN=C(N)N)NC(=O)[C@H](Cc1ccc(O)cc1)NC(=O)[C@H](CO)NC(=O)[C@H](CC(N)=O)NC(=O)[C@@H](NC(=O)[C@H](Cc1ccccc1)NC(=O)[C@@H](NC(=O)[C@H](C)NC(=O)[C@H](CC(=O)O)NC(=O)[C@H](C)NC(=O)[C@@](C)(N)Cc1ccc(O)cc1)[C@@H](C)CC)[C@@H](C)O)C(C)C)[C@@H](C)CC)C(=O)N[C@@H](CO)C(=O)N[C@@H](CCCN=C(N)N)C(N)=O` (H-[αMeY]ADAIFTNSYRKVLAQLSARKLLQDI[Nle]SR-NH2), 5.8. To `CC[C@H](C)[C@H](NC(=O)[C@H](C)NC(=O)[C@H](CC(=O)O)NC(=O)[C@H](C)NC(=O)[C@@H](N)Cc1ccc(O)cc1)C(=O)N[C@@H](Cc1ccccc1)C(=O)N[C@H](C(=O)N[C@@H](CC(N)=O)C(=O)N[C@@H](CO)C(=O)N[C@@H](Cc1ccc(O)cc1)C(=O)N[C@@H](CCCN=C(N)N)C(=O)N[C@@H](CCCCN)C(=O)N[C@H](C(=O)N[C@@H](CC(C)C)C(=O)NCC(=O)N[C@@H](CCC(N)=O)C(=O)N[C@@H](CC(C)C)C(=O)N[C@@H](CO)C(=O)N[C@@H](C)C(=O)N[C@@H](CCCN=C(N)N)C(=O)N[C@@H](CCCCN)C(=O)N[C@@H](CC(C)C)C(=O)N[C@@H](CC(C)C)C(=O)N[C@@H](CCC(N)=O)C(=O)N[C@@H](CC(=O)O)C(=O)N[C@H](C(=O)N[C@@H](CCSC)C(=O)N[C@@H](C)C(=O)N[C@@H](CCCN=C(N)N)C(N)=O)[C@@H](C)CC)C(C)C)[C@@H](C)O` (stereo in doubt; 27) belongs 1.9; to `CC[C@H](C)[C@H](NC(=O)[C@H](C)NC(=O)[C@H](CC(=O)O)NC(=O)[C@H](C)NC(=O)[C@@H](N)Cc1ccc(O)cc1)C(=O)N[C@@H](Cc1ccccc1)C(=O)N[C@H](C(=O)N[C@@H](CC(N)=O)C(=O)N[C@@H](CO)C(=O)N[C@@H](Cc1ccc(O)cc1)C(=O)N[C@@H](CCCN=C(N)N)C(=O)N[C@@H](CCCCN)C(=O)N[C@H](C(=O)N[C@@H](CC(C)C)C(=O)NCC(=O)N[C@@H](CCC(N)=O)C(=O)N[C@@H](CC(C)C)C(=O)N[C@@H](CO)C(=O)N[C@@H](C)C(=O)N[C@@H](CCCN=C(N)N)C(=O)N[C@@H](CCCCN)C(=O)N[C@@H](CC(C)C)C(=O)N[C@@H](CC(C)C)C(=O)N[C@@H](CCC(N)=O)C(=O)N[C@@H](CC(=O)O)C(=O)N[C@H](C(=O)N[C@@H](CCSC)C(=O)N[C@@H](C)C(=O)N[C@@H](CCCN=C(N)N)C(N)=O)[C@@H](C)CC)C(C)C)[C@@H](C)O` (stereo in doubt; 39), 2.2; to H-AADAIFTNSYRKVLGQLSARKLLQDIMSR-NH2, 0.01. To H-YAAAIFTNSYRKVLGQLSARKLLQDIMSR-NH2 belongs 0.05; to H-YADAAFTNSYRKVLGQLSARKLLQDIMSR-NH2, 0.1; to H-YADAIATNSYRKVLGQLSARKLLQDIMSR-NH2, 0. Molecule H-YADAIFANSYRKVLGQLSARKLLQDIMSR-NH2 showed a Relative potency of 0.29. In the case of H-YADAIFTASYRKVLGQLSARKLLQDIMSR-NH2, the Relative potency is 2.1. For H-YADAIFTNAYRKVLGQLSARKLLQDIMSR-NH2, the Relative potency amounted to 2.6.

In turn, H-YADAIFTNSARKVLGQLSARKLLQDIMSR-NH2 yielded a Relative potency of 0.01. For the molecule H-YADAIFTNSYAKVLGQLSARKLLQDIMSR-NH2, the Relative potency came out at 0.01.

In turn, H-YADAIFTNSYRAVLGQLSARKLLQDIMSR-NH2 had a Relative potency of 0.16. The molecule H-YADAIFTNSYRKALGQLSARKLLQDIMSR-NH2 had a Relative potency of 0.06.

Regarding H-YADAIFTNSYRKVAGQLSARKLLQDIMSR-NH2, the Relative potency came out at 0.01. Take H-YADAIFTNSYRKVLAQLSARKLLQDIMSR-NH2: the Relative potency turned out to be 5.6. The molecule H-YADAIFTNSYRKVLGALSARKLLQDIMSR-NH2 returned a Relative potency of 1.5. The molecule H-YADAIFTNSYRKVLGQASARKLLQDIMSR-NH2 registered a Relative potency of 0.39.

Regarding H-YADAIFTNSYRKVLGQLAARKLLQDIMSR-NH2, the Relative potency was 1.6 and 1.4. H-YADAIFTNSYRKVLGQLSAAKLLQDIMSR-NH2 had a Relative potency of 0.3. As for H-YADAIFTNSYRKVLGQLSARALLQDIMSR-NH2, the Relative potency came to 0.27. The result for H-YADAIFTNSYRKVLGQLSARKALQDIMSR-NH2 reads 4.7; that for H-YADAIFTNSYRKVLGQLSARKLAQDIMSR-NH2, 0.07. On to H-YADAIFTNSYRKVLGQLSARKLLADIMSR-NH2, for which the Relative potency came to 1.3.

H-YADAIFTNSYRKVLGQLSARKLLQAIMSR-NH2 showed a Relative potency of 1.3. On to H-YADAIFTNSYRKVLGQLSARKLLQDAMSR-NH2, for which the Relative potency came to 1.1.

H-YADAIFTNSYRKVLGQLSARKLLQDIASR-NH2 yielded a Relative potency of 0.32.

As to H-YADAIFTNSYRKVLGQLSARKLLQDIMSA-NH2, the Relative potency was determined as 0.59.

The values are drawn from ChEMBL document CHEMBL1131484, “Human growth hormone-releasing hormone hGHRH(1-29)-NH2: systematic structure-activity relationship studies” (J Med Chem, 1998).
